# US12215215B2, “Stabilizer compositions and methods for using same for protecting polymeric organic materials from UV light and thermal degradation” (Cytec Industries Inc., priority 2014, dated 2025)
# Assay: Solubility of triazine UV absorbers in cyclohexane at room temperature
# Type: physicochemical
# Conditions: room temperature (20° C.)
# Text: UV stabilizers and co-additives. […] Solubility measurements of various orthohydroxyphenyl triazines in cyclohexane (substitute for polypropylene) conducted at room temperature indicate that such triazines having a solubility greater than 0.04 wt. % can be used in certain embodiments as the UV absorber of the stabilizer compositions described herein.
row,Compound,Solubility of triazines in Cyclohexane at room temperature
1,"CCCCCCCCOc1ccc(-c2nc(-c3ccc(OCCCCCCCC)cc3O)nc(-c3ccc(OCCCCCCCC)cc3O)n2)c(O)c1 [Formulation P-800, 2,4,6-tris(2-hydroxy-4-octyloxy-phenyl)-1,3,5-triazine]",>0.04% weight %
2,"CCCCCCCCOc1ccc(-c2nc(-c3ccc(C)cc3C)nc(-c3ccc(C)cc3C)n2)c(O)c1 [UV-1164, 2-[4,6-bis(2,4-dimethylphenyl)-1,3,5-triazin-2-yl]-5-(octyloxy) phenol]",1.4 ± 0.2 weight %
